As a reminder, the ΔTm is the shift of the melting midpoint relative to a reference.

The target in experiment [1] is Serine/threonine-protein kinase WNK2 (Homo sapiens) (UniProt Q9Y3S1). The experiment in a line: Inhibition of WNK2 (unknown origin) assessed as residual activity at 1000 nM by KINOMEscan analysis relative to control.
For experiment [2], the target named is BMP-2-inducible protein kinase (Homo sapiens) (UniProt Q9NSY1). The experiment in a line: Inhibition of BIKE (unknown origin) assessed as residual activity at 100 nM by KINOMEscan analysis relative to control.
In experiment [3] the target is Serine/threonine-protein kinase pim-3 (Homo sapiens) (UniProt Q86V86). The experiment in a line: Inhibition of PIM3 (unknown origin) assessed as residual activity at 100 nM by KINOMEscan analysis relative to control.
Experiment [4] addresses Mitogen-activated protein kinase kinase kinase kinase 4 (Homo sapiens) (UniProt O95819). The experiment in a line: Inhibition of MAP4K4 (unknown origin) assessed as residual activity at 100 nM by KINOMEscan analysis relative to control.
For experiment [5], the target named is T1, Ephrin type-A receptor 8 (Homo sapiens) (UniProt P29322).
T1 sequence (whole entry): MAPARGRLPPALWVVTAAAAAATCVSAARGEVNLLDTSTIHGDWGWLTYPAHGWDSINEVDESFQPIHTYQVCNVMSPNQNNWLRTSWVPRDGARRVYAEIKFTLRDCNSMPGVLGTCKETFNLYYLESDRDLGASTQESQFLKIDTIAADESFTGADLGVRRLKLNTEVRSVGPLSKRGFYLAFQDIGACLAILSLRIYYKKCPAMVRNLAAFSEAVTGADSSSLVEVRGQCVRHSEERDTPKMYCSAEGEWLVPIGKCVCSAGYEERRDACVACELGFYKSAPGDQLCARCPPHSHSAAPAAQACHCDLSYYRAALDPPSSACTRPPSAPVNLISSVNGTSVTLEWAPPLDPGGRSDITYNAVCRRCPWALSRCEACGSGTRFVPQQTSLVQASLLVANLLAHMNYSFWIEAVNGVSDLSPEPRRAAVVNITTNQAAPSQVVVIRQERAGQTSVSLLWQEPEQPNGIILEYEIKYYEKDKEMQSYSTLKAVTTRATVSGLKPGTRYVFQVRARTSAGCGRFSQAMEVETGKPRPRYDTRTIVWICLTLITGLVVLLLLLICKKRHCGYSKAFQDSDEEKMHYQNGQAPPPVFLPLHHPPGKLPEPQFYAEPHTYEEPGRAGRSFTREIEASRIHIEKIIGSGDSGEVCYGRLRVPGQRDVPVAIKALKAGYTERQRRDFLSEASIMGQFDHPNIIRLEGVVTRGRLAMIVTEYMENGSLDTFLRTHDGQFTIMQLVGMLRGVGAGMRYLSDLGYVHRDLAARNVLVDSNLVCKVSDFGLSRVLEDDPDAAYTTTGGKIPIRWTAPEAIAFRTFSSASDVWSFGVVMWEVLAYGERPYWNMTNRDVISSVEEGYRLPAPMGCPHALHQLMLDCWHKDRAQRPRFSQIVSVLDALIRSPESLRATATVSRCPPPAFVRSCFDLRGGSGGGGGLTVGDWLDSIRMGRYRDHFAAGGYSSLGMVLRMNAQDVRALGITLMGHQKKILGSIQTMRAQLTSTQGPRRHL
The experiment in a line: Inhibition of EPHA8 (unknown origin) assessed as residual activity at 100 nM by KINOMEscan analysis relative to control.

The test system of experiment [6] is Mast/stem cell growth factor receptor Kit (Homo sapiens), P10721 [L576P]. The experiment in a line: Inhibition of KIT L576P mutant (unknown origin) assessed as residual activity at 100 nM by KINOMEscan analysis relative to control.
The test system of experiment [7] is Tyrosine-protein kinase ABL1 (Homo sapiens), P00519 [F317L]. The experiment in a line: Inhibition of phosphorylated ABL1 F317L mutant (unknown origin) assessed as residual activity at 100 nM by KINOMEscan analysis relative to control.
Experiment [8] addresses Serine/threonine-protein kinase B-raf (Homo sapiens) (UniProt P15056). The experiment in a line: Inhibition of BRAF (unknown origin) assessed as residual activity at 100 nM by KINOMEscan analysis relative to control.
The target in experiment [9] is Serine/threonine-protein kinase WNK3 (Homo sapiens) (UniProt Q9BYP7). The experiment in a line: Inhibition of WNK3 (unknown origin) assessed as residual activity at 100 nM by KINOMEscan analysis relative to control.
The target in experiment [10] is T2, Serine/threonine-protein kinase tousled-like 1 (Homo sapiens) (UniProt Q9UKI8).
T2 sequence (whole entry): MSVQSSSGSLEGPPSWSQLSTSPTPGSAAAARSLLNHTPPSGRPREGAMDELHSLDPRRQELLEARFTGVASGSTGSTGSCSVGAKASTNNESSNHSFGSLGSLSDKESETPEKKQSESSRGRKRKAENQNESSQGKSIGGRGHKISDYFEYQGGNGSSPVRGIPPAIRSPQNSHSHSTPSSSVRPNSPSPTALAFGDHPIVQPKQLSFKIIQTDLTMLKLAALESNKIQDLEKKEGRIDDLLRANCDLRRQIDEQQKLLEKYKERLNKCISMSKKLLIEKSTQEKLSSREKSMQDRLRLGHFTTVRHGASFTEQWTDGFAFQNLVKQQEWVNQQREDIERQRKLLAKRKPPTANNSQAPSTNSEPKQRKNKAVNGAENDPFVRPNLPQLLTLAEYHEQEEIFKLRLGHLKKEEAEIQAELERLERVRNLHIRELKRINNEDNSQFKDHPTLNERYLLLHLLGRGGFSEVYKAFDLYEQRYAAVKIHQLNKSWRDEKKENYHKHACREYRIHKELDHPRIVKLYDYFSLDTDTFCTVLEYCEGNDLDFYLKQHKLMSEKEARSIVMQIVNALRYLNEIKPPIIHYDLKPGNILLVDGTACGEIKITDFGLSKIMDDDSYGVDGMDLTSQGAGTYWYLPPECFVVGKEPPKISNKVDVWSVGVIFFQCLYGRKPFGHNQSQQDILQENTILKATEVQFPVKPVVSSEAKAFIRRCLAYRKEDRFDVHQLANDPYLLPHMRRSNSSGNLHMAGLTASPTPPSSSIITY
The experiment in a line: Inhibition of TLK1 (unknown origin) assessed as residual activity at 100 nM by KINOMEscan analysis relative to control.

In experiment [11] the target is Ribosomal protein S6 kinase alpha-2 (Homo sapiens) (UniProt Q15349). The experiment in a line: Inhibition of N-terminal RSK3 […] domain 1 (unknown origin) assessed as residual activity at 100 nM by KINOMEscan analysis relative to control.
In experiment [12] the test system is GTPase KRas (Homo sapiens), P01116 [G12C]. The experiment in a line: Stabilization of N-terminal GST-tagged recombinant human KRAS G12C mutant (1 to 169 residues) expressed in Escherichia coli assessed as change in melting temperature at 100 uM with heating from 25 to 85 degreeC by thermal shift assay.

Consider `COc1cc2nc(C)nc(N[C@H](C)c3cccc(-c4cn[nH]c4)c3)c2cc1OC`, for which, in experiment [1], the Activity is 100%.
In the case of `COc1cc2ncnc(N[C@H](C)c3cccc4ccccc34)c2cc1OC`, the Activity in experiment [2] stood at 93%; in [3], 87%; in [4], 65%; in experiment [5], 75%; in experiment [6], 85%; in [7], 86%. In addition, the Activity in experiment [8] amounted to 88%; in [9], 89%; in [10], 79%; in experiment [11], 100%.
On to `CNCc1ccccc1-c1csc([C@@H](C)Nc2nc(C)nc3cc(OC)c(OC)cc23)c1` [BAY-293], for which the ΔTm in experiment [12] was determined as 0.21 °C.

(Values after ChEMBL document CHEMBL5678818, “Discovery of potent SOS1 inhibitors that block RAS activation via disruption of the RAS-SOS1 interaction” (Proc Natl Acad Sci U S A, 2019).)
